Experimental data from ChEMBL document CHEMBL1201862, “PubChem BioAssay data set” (2004).
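96-well plates; 48 h exposure; 5 concentrations. Endpoints by linear interpolation between flanking doses. Not reached: highest tested concentration assigned. Abbreviation: GI50, concentration required for 50% inhibition of growth.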 Calls of active or inactive are those of the source. Rule as the data show it: active = GI50 up to about 1.1 µM and inactive = higher.

Columns and labels:
Test in all cases: NCI-60 cell line screen, 48 h
SF-539 = system: SF-539
Malme-3M = system: Malme-3M
NCI-H226 = system: NCI-H226
PC-3 = system: PC-3
786-0 = system: 786-0
OVCAR-3 = system: OVCAR-3
SNB-75 = system: SNB-75
SK-MEL-5 = system: SK-MEL-5
HL-60 = system: HL-60
CAKI-1 = system: CAKI-1
NCI-H23 = system: NCI-H23
TK-10 = system: TK-10
RPMI-8226 = system: RPMI-8226
HOP-92 = system: HOP-92
MOLT-4 = system: MOLT-4
HT-29 = system: HT-29
RXF 393 = system: RXF 393
K562 = system: K562
EKVX = system: EKVX
MCF7 = system: MCF7

Compound: CC1OC2OC3C(OCC(O)C3O)OC(=O)[C@]34CCC(C)(C)CC3C3=CCC5[C@@]6(C)C[C@H](O)[C@H](OC7OC(CO)C(O)C(O)C7OC7OC(COC(=O)CC(C)(O)CC(=O)OC1C(OC1OC(CO)C(O)C(O)C1O)C2O)C(O)C(O)C7O)[C@@](C)(CO)C6CC[C@@]5(C)[C@]3(C)CC4 (stereo partly specified)
- GI50 (SF-539): 5.46 µM (inactive)
- GI50 (Malme-3M): 2.41 µM (inactive)
- GI50 (NCI-H226): 7.91 µM (inactive)
- GI50 (PC-3): 1.95 µM (inactive)
- GI50 (786-0): 2.84 µM (inactive)
- GI50 (OVCAR-3): 4.35 µM (inactive)
- GI50 (SNB-75): 2.82 µM (inactive)
- GI50 (SK-MEL-5): 0.137 µM (active)
- GI50 (HL-60): 1.44 µM (inactive)
- GI50 (CAKI-1): 7.53 µM (inactive)
- GI50 (NCI-H23): 1.51 µM (inactive)
- GI50 (TK-10): 1.85 µM (inactive)
- GI50 (RPMI-8226): 2.51 µM (inactive)
- GI50 (HOP-92): 2.24 µM (inactive)
- GI50 (MOLT-4): 2.98 µM (inactive)
- GI50 (HT-29): 1.52 µM (inactive)

Compound: COc1cc2nn(-c3ccccc3)nc2c2nonc12
- GI50 (SF-539): 87.5 µM (inactive)
- GI50 (RXF 393): > 100 µM (inactive)
- GI50 (Malme-3M): > 100 µM (inactive)
- GI50 (K562): > 100 µM (inactive)
- GI50 (NCI-H226): > 100 µM (inactive)
- GI50 (PC-3): > 100 µM (inactive)
- GI50 (786-0): 91.6 µM (inactive)
- GI50 (OVCAR-3): > 100 µM (inactive)
- GI50 (EKVX): > 100 µM (inactive)
- GI50 (SNB-75): > 100 µM (inactive)
- GI50 (SK-MEL-5): > 100 µM (inactive)
- GI50 (HL-60): > 100 µM (inactive)
- GI50 (CAKI-1): > 100 µM (inactive)
- GI50 (NCI-H23): > 100 µM (inactive)
- GI50 (TK-10): > 100 µM (inactive)
- GI50 (RPMI-8226): > 100 µM (inactive)
- GI50 (MOLT-4): > 100 µM (inactive)
- GI50 (HT-29): > 100 µM (inactive)

Compound: CC1(C)OCC(CO)(Nc2nc(N3CC3)nc(N3CC3)n2)CO1
- GI50 (SF-539): 4.18 µM (inactive)
- GI50 (RXF 393): 13.2 µM (inactive)
- GI50 (Malme-3M): 16.9 µM (inactive)
- GI50 (K562): 12.7 µM (inactive)
- GI50 (NCI-H226): 8.13 µM (inactive)
- GI50 (PC-3): 17.9 µM (inactive)
- GI50 (786-0): 3.88 µM (inactive)
- GI50 (OVCAR-3): 20.4 µM (inactive)
- GI50 (EKVX): 32 µM (inactive)
- GI50 (SNB-75): 6.58 µM (inactive)
- GI50 (SK-MEL-5): 8.18 µM (inactive)
- GI50 (HL-60): 0.69 µM (active)
- GI50 (CAKI-1): 1.52 µM (inactive)
- GI50 (NCI-H23): 4.12 µM (inactive)
- GI50 (TK-10): 24.6 µM (inactive)
- GI50 (RPMI-8226): 16.1 µM (inactive)
- GI50 (HOP-92): 15.3 µM (inactive)
- GI50 (MOLT-4): 0.597 µM (active)
- GI50 (HT-29): 13.9 µM (inactive)

Compound: c1cc2c(cc1C1=NCCN1)c1cc(C3=NCCN3)ccc1n2CC1CCCCC1
- GI50 (SF-539): 3.65 µM (inactive)
- GI50 (RXF 393): 39.5 µM (inactive)
- GI50 (Malme-3M): 8.11 µM (inactive)
- GI50 (K562): 14.8 µM (inactive)
- GI50 (NCI-H226): 12.3 µM (inactive)
- GI50 (PC-3): 21.5 µM (inactive)
- GI50 (786-0): 19.4 µM (inactive)
- GI50 (OVCAR-3): 21.2 µM (inactive)
- GI50 (EKVX): 14.1 µM (inactive)
- GI50 (SNB-75): 11.6 µM (inactive)
- GI50 (SK-MEL-5): 11.9 µM (inactive)
- GI50 (HL-60): 14.3 µM (inactive)
- GI50 (CAKI-1): > 100 µM (inactive)
- GI50 (NCI-H23): 17.1 µM (inactive)
- GI50 (TK-10): 51.3 µM (inactive)
- GI50 (RPMI-8226): 22.7 µM (inactive)
- GI50 (HOP-92): 8 µM (inactive)
- GI50 (MOLT-4): 5.05 µM (inactive)
- GI50 (HT-29): 11.5 µM (inactive)

Compound: COc1cccc(-c2c(C#N)c(N)nc3c2CCS(=O)(=O)c2ccc(C)cc2-3)c1
- GI50 (Malme-3M): 68.1 µM (inactive)
- GI50 (K562): > 100 µM (inactive)
- GI50 (NCI-H226): > 100 µM (inactive)
- GI50 (PC-3): 89.1 µM (inactive)
- GI50 (786-0): 61.7 µM (inactive)
- GI50 (OVCAR-3): > 100 µM (inactive)
- GI50 (SNB-75): 33 µM (inactive)
- GI50 (SK-MEL-5): > 100 µM (inactive)
- GI50 (HL-60): > 100 µM (inactive)
- GI50 (CAKI-1): > 100 µM (inactive)
- GI50 (NCI-H23): > 100 µM (inactive)
- GI50 (TK-10): > 100 µM (inactive)
- GI50 (RPMI-8226): > 100 µM (inactive)
- GI50 (HOP-92): > 100 µM (inactive)
- GI50 (HT-29): > 100 µM (inactive)

Compound: COC1(C)C(=O)N2C1N(C(=O)OC(C)(C)C)CC2(C)C (stereo unspecified)
- GI50 (SF-539): > 100 µM (inactive)
- GI50 (RXF 393): > 100 µM (inactive)
- GI50 (Malme-3M): > 100 µM (inactive)
- GI50 (K562): > 100 µM (inactive)
- GI50 (NCI-H226): > 100 µM (inactive)
- GI50 (786-0): > 100 µM (inactive)
- GI50 (OVCAR-3): > 100 µM (inactive)
- GI50 (EKVX): > 100 µM (inactive)
- GI50 (SNB-75): > 100 µM (inactive)
- GI50 (SK-MEL-5): > 100 µM (inactive)
- GI50 (HL-60): > 100 µM (inactive)
- GI50 (CAKI-1): > 100 µM (inactive)
- GI50 (NCI-H23): > 100 µM (inactive)
- GI50 (TK-10): > 100 µM (inactive)
- GI50 (RPMI-8226): 44.8 µM (inactive)
- GI50 (HOP-92): > 100 µM (inactive)
- GI50 (MOLT-4): > 100 µM (inactive)
- GI50 (HT-29): > 100 µM (inactive)

Compound: NS(=O)(=O)c1nnc(NC(=O)c2ccccc2)s1
- GI50 (SF-539): > 100 µM (inactive)
- GI50 (RXF 393): > 100 µM (inactive)
- GI50 (Malme-3M): > 100 µM (inactive)
- GI50 (K562): > 100 µM (inactive)
- GI50 (NCI-H226): > 100 µM (inactive)
- GI50 (MCF7): > 100 µM (inactive)
- GI50 (786-0): > 100 µM (inactive)
- GI50 (OVCAR-3): > 100 µM (inactive)
- GI50 (EKVX): > 100 µM (inactive)
- GI50 (SK-MEL-5): > 100 µM (inactive)
- GI50 (CAKI-1): > 100 µM (inactive)
- GI50 (NCI-H23): > 100 µM (inactive)
- GI50 (TK-10): > 100 µM (inactive)
- GI50 (RPMI-8226): > 100 µM (inactive)
- GI50 (HOP-92): 65.3 µM (inactive)
- GI50 (MOLT-4): > 100 µM (inactive)
